Source: patent US12528774B2, “Thiosemicarbazone compounds and uses thereof” (The Regents of the University of California, priority 2019, dated 2026)

Key:
[1] = tested on: panel of PDAC, SCLC, and PC cancer models; test: Proliferation assay (CellTiter-Glo) in panel of PDAC, SCLC and PC cancer models; format: cell-based, human and mouse; settings: media with 20 μM CuCl2, 72 h
Excerpt: FIG. 1A: IC50 values in a panel of human and mouse prostate cancer (PC)(cell lines CF-2, LNCaP, 22Rv1, RM-1, MyC CaP); small cell lung carcinoma (SCLC)(cell lines NCI-H1963, NCI-H146, NCI-H526); pancreatic ductal adenocarcinoma (PDAC)(CFPAC1, SW1990, HS766T, PANC0203, PANC0813, ASPC1, HPAFII, PATU8902, PANC0327, PANC1, YAPC, L36PL, XWR200, HUPT4, A13A, SUIT2, DAN-G, BxPC3, HPAC, PSN1, SU8686, KP4662, MIAPACA2, PATU8988T); and leukemia (cell lines KG-1, TF-1, Jurkat, MOLT-4, p185-R, MV4-11) models treated with HCT13+Cu(II) (20 μM) for 72 h measured by CellTiterGlo. […] (mean±SD, n=2, one-way ANOVA corrected for multiple comparisons by Bonferroni adjustment, * P<0.05; **P<0.01; ***P<0.001).
Serum copper levels are elevated (>20 μM) in individuals with solid tumor types such as pancreatic ductal adenocarcinoma (PDAC), small cell lung carcinoma (SCLC), and prostate cancer (PC). (Refs. 43-48). These cancers rely upon elevated copper levels to sustain growth, making this transition metal a viable target for therapeutic modulation. (Ref 34). […]
Proliferation assay: Cells were plated in 384-well plates (500 cells/well for adherent cell lines in 30 μl volume). […] Following 72 h incubation, ATP content was measured using CellTiter-Glo reagent according to manufacturer's instructions (Promega, CellTiter-Glo Luminescent Cell Viability Assay), and analyzed by SpectraMax luminometer (Molecular Devices). […]

[2] = biological target: dihydroorotate dehydrogenase (DHODH) (Homo sapiens, UniProt Q02127); test: Recombinant DHODH activity assay; format: biochemical; settings: HCT-13 100 nM, 1 μM; Cu(II) 20 μM
dihydroorotate dehydrogenase (DHODH), sequence (Q02127 whole entry, species assumed): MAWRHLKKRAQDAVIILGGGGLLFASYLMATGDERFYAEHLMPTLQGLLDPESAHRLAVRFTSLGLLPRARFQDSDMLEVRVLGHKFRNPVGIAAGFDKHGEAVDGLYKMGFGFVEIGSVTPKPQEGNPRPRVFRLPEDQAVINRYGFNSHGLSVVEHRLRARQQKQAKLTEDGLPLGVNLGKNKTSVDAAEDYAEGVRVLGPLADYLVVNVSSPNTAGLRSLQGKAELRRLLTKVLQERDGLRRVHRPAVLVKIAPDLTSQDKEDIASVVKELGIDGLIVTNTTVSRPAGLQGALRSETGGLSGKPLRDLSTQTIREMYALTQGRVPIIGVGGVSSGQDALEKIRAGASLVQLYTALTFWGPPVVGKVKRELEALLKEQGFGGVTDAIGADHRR
Procedure: FIG. 5A: rescue of HCT-13 (25 nM)-induced cell death by Uridine (rU) (200 μM), Pyruvate (1 mM), or both following 48h of treatment. FIG. 5B: measurement of DHODH activity using recombinant DHODH assay following treatment with indicated perturbations for 2 min. DHODH inhibitor used: NITD-982-1 μM; HCT-13-100 nM, 1 μM, (100 nM data shown); Cu(II)—20 μM. (mean±SD, n=2, Student t-test, * P<0.05).
DHODH activity: Recombinant protein was incubated in an aqueous solution (total volume, 1.0 mL) containing 500 μM DHO (Sigma, D1728), 200 mM K2CO3-HCl (pH 8.0), 0.2% triton x-100, and 100 μM coenzyme Q10 (Sigma, C9538) at 37° C. for 0, 15, 30, 45, or 60 min. An aliquot (100 μL) of the mixture of enzyme reaction mixture or cell/tissue lysate was mixed with 100 μL of 0, 0.5, or 1.0 μM orotic acid, 50 μL of H2O, 250 μL of 4.0 mM 4-TFMBAO (Sigma, 422231), 250 μL of 8.0 mM K3[Fe(CN)6] (Sigma, 244023), and 250 μL of 80 mM K2CO3 (Sigma, P5833) and then heated at 80° C. for 4.0 min. The reaction was stopped by cooling in an ice-water bath and the absorbance was measured with a spectrofluorometer (FP-6300 Jasco, Tokyo, Japan): excitation and emission wavelengths were 340 nm and 460 nm, respectively.

SMILES: CN(C)C(=S)N/N=C/c1nccc2cc(F)ccc12 (mixture of isomers) [HCT13, (E)-2-((6-Fluoroisoquinolin-1-yl)methylene)-N,N-dimethylhydrazine-1-carbothioamide and (Z)-2-((6-Fluoroisoquinolin-1-yl)methylene)-N,N-dimethylhydrazine-1-carbothioamide]
- +Cu IC90 range across panel [1]: nanomolar
- IC90 ([1]; read-out: +Cu IC90 range across panel): 1 to 200 nM
- affinity for DHODH [2]: did not demonstrate affinity
